The assay has as its target human 11β-HSD1 microsome fraction (Homo sapiens, UniProt P28845). Nature of the assay: Enzymatic 11beta-HSD1 test (SPA-based detection). The note with it: IC50 (nM), Biological activity, [1,2-3H]-cortisone, 0.25 mM NADPH, 37° C. for 1 hour.
Chain of human 11β-HSD1 microsome fraction (P28845 whole entry): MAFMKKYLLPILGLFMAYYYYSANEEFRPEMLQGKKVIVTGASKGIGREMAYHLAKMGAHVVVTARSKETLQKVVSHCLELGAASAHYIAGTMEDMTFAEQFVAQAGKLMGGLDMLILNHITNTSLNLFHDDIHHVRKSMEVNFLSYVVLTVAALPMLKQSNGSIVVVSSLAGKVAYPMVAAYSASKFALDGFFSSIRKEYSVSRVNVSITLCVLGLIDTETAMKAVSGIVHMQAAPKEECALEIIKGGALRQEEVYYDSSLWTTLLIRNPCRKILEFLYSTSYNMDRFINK
Description: Enzymatic 11beta-HSD1 test:
Protein and radioactive substrate were dispensed with a Biomek FX unit (Beckman Coulter) for handling liquids. The test compounds were added with a Cybi-Well equipped with a 90 nl pin tool (CyBio).
Molecule `NS(=O)(=O)CC(NC1=NS(=O)(=O)[C@@H]2CCCC[C@@H]2O1)c1ccccc1` (stereo partly drawn) [Example 29, 2-((4aS,8aR)-1,1-Dioxo-4a,5,6,7,8,8a-hexahydro-1H-1lambda6-benzo[1,4,3]oxathiazin-3-ylamino)-2-phenyl-ethanesulfonamide] had an IC50 of 15 nM.
Take `CC12CCCCC1(C)S(=O)(=O)N=C(N[C@@H](CCO)c1cccnc1)O2` (single isomer, unassigned) [Example 34]: the 50% inhibitory concentration (IC50) is 353 nM.
For `O=S1(=O)N=C(N[C@@H](CCO)c2cccnc2)O[C@H]2CCCC[C@H]21` [Example 25, (S)-3-((4aS,8aR)-1,1-Dioxo-4a,5,6,7,8,8a-hexahydro-1H-1lambda6-benzo[1,4,3]oxathiazin-3-ylamino)-3-pyridin-3-yl-propan-1-ol] the value was 25 nM.
Molecule `O=S1(=O)N=C(N[C@@H](CCO)c2ccccc2)OC2CCOCC21` (single isomer, unassigned) [Example 26] registered a concentration for half-maximal inhibition (IC50) of 742 nM.
`O=S1(=O)N=C(N[C@@H](CCO)c2ccccc2)OC2CCOCC21` (single isomer, unassigned) [Example 27] came in with an IC50 of 62 nM.
For `O=S1(=O)N=C(N[C@H](CO)Cc2ccccc2)OC2CCCCC21` (stereo partly drawn) [Example 3, (S)-2-(−1,1-Dioxo-4a,5,6,7,8,8a-hexahydro-1H-1lambda6-benzo[1,4,3]oxathiazin-3-ylamino)-3-phenyl-propan-1-ol] the value was 24 nM; for `O=S1(=O)N=C(N[C@@H](CCO)c2ccc(F)cc2)OC2CCCCC21` (stereo partly drawn) [Example 9, (S)-3-(−1,1-Dioxo-4a,5,6,7,8,8a-hexahydro-1H-1lambda6-benzo[1,4,3]oxathiazin-3-ylamino)-3-(4-fluoro-phenyl)-propan-1-ol], 5 nM; for `O=S1(=O)N=C(N[C@@H](CCO)c2ccc(F)cc2)OC2CCCCC21` (single isomer, unassigned) [Example 20], 13 nM.
For `O=S1(=O)N=C(N[C@@H](CCO)c2ccc(F)cc2)OC2CCCCC21` (stereo partly drawn) [Example 18, (S)-3-(−1,1-Dioxo-4a,5,6,7,8,8a-hexahydro-1H-1lambda6-benzo[1,4,3]oxathiazin-3-ylamino)-3-(4-fluoro-phenyl)-propan-1-ol] the value was 4 nM; for `CC12CCCCC1(C)S(=O)(=O)N=C(N[C@@H](CCO)c1ccccc1)O2` (single isomer, unassigned) [Example 31], 34 nM.
`O=S1(=O)N=C(N[C@@H](CCO)c2cccc(F)c2)OC2CCCCC21` (stereo partly drawn) [Example 10, (S)-3-(−1,1-Dioxo-4a,5,6,7,8,8a-hexahydro-1H-1lambda6-benzo[1,4,3]oxathiazin-3-ylamino)-3-(3-fluoro-phenyl)-propan-1-ol] yielded an IC50 of 104 nM.
The value for `O=S1(=O)N=C(N[C@@H](CCO)c2ccccc2)OC2CCC(F)(F)CC21` (stereo partly drawn) [Example 28, (S)-3-(7,7-Difluoro-1,1-dioxo-4a,5,6,7,8,8a-hexahydro-1H-1lambda6-benzo[1,4,3]oxathiazin-3-ylamino)-3-phenyl-propan-1-ol] was 445 nM; that for `O=S1(=O)N=C(N[C@@H](CCO)c2ccc(F)cc2)OC2CCCCC21` (single isomer, unassigned) [Example 19] was 11 nM.
Molecule `CC12CCCCC1(C)S(=O)(=O)N=C(N[C@@H](CCO)c1cccnc1)O2` (single isomer, unassigned) [Example 33] registered an IC50 of 9 nM.
On to `O=S1(=O)N=C(N[C@@H](CCO)c2cccc(F)c2)OC2CCCCC21` (stereo partly drawn) [Example 17, (S)-3-(−1,1-Dioxo-4a,5,6,7,8,8a-hexahydro-1H-1lambda6-benzo[1,4,3]oxathiazin-3-ylamino)-3-(3-fluoro-phenyl)-propan-1-ol], for which the midpoint of inhibition, the IC50, lay at 27 nM.
Regarding `NS(=O)(=O)CC(NC1=NS(=O)(=O)[C@@H]2CCCC[C@@H]2O1)c1ccccc1` (stereo partly drawn) [Example 30, 2-((4aS,8aR)-1,1-Dioxo-4a,5,6,7,8,8a-hexahydro-1H-1lambda6-benzo[1,4,3]oxathiazin-3-ylamino)-2-phenyl-ethanesulfonamide], the IC50 turned out to be 11 nM.
In turn, `O=S1(=O)N=C(N[C@@H](CO)Cc2ccccc2)OC2CCCCC21` (stereo partly drawn) [Example 2, (R)-2-(−1,1-Dioxo-4a,5,6,7,8,8a-hexahydro-1H-1lambda6-benzo[1,4,3]oxathiazin-3-ylamino)-3-phenyl-propan-1-ol] gave a concentration for half-maximal inhibition (IC50) of 575 nM.
On to `CC12CCCCC1(C)S(=O)(=O)N=C(N[C@@H](CCO)c1ccccc1)O2` (single isomer, unassigned) [Example 32], for which 4 nM corresponded to half-maximal inhibition (IC50).

What is called IC50 is the midpoint of a concentration-inhibition curve.
